What was measured:
[1] = Pharmacokinetic test in canine; format: in vivo, beagle dogs; conditions: male, beagle, dog, plasma, oral gavage 5 mg/kg
Experimental: (§1) In the rat pharmacokinetic test, 3 male SD rats (180-240 g) were fasted overnight, and orally administered with 10 mg/kg of compound to be tested. Blood was collected before the administration, and 15 min, 30 min, 1 h, 2 h, 4 h, 8 h, and 24 h hours after the administration. The blood sample was centrifuged at 8000 rpm for 6 min at 4° C., and the plasma was collected and stored at −20° C. The plasma collected at each time point was added and mixed with 3-5 times the amount of acetonitrile solution containing an internal standard, vortexed for 1 min, centrifuged at 13,000 rpm for 10 min at 4° C. The supernatant was taken and mixed with 3 times the amount of water, and an appropriate amount of the mixture was taken for LC-MS/MS analysis. The main pharmacokinetic parameters were analyzed with WinNonlin 7.0 software non-compartmental model.
(§2) In the mouse pharmacokinetic test, 9 male CD-1 mice (20-25 g) were fasted overnight, and orally administered with 10 mg/kg of the compound to be tested. Bloods of 3 mice were collected at each time point, and bloods of 9 mice were alternately collected in total. In the pharmacokinetic test in canine, 3 male beagle dogs (8-10 kg) were fasted overnight, and orally administered with 5 mg/kg of the compound to be test. In the pharmacokinetic test of cynomolgus monkeys, 3 male cynomolgus monkeys (4 to 6.5 kg) were fasted overnight, and orally administered 20 mg/kg of the compound to be test. The remaining processes are the same as those of the rat pharmacokinetic test.

PDE4B = biological target: T1, PDE4B (Homo sapiens, UniProt Q07343); experiment: PDE4B enzyme activity assay (PDE-Glo Phosphodiesterase Assay Kit); format: biochemical; conditions: for IC50 (PDE4D)/IC50 (PDE4B): selectivity ratio
T1 construct: purchased Enzo Life Sciences BML-SE522-0020
How it was run: (§3)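 Recombinant human PDE4B (1 ng/μl working solution) or PDE4D (4 ng/μl working solution) preincubated 5 min at RT with compound, then reacted 20 min with cAMP (2 μM in added solution). PDE-Glo termination/detection and Kinase-Glo steps followed; luminescence read and IC50 fitted.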

[2] = Mouse pharmacokinetic test; format: in vivo, CD-1 mice; conditions: male, CD-1, plasma, oral gavage 10 mg/kg
Experimental: as §1, §2

PDE4D = biological target: T2, PDE4D (Homo sapiens, UniProt Q08499); experiment: PDE4D enzyme activity assay (PDE-Glo Phosphodiesterase Assay Kit); format: biochemical
T2 construct: purchased Enzo Life Sciences BML-SE523-0020
How it was run: as §3

[3] = Pharmacokinetic test of cynomolgus monkeys; format: in vivo; conditions: male, plasma; cynomolgus monkey, oral gavage 20 mg/kg
Experimental: as §1, §2

T1 sequence (Q07343 whole entry): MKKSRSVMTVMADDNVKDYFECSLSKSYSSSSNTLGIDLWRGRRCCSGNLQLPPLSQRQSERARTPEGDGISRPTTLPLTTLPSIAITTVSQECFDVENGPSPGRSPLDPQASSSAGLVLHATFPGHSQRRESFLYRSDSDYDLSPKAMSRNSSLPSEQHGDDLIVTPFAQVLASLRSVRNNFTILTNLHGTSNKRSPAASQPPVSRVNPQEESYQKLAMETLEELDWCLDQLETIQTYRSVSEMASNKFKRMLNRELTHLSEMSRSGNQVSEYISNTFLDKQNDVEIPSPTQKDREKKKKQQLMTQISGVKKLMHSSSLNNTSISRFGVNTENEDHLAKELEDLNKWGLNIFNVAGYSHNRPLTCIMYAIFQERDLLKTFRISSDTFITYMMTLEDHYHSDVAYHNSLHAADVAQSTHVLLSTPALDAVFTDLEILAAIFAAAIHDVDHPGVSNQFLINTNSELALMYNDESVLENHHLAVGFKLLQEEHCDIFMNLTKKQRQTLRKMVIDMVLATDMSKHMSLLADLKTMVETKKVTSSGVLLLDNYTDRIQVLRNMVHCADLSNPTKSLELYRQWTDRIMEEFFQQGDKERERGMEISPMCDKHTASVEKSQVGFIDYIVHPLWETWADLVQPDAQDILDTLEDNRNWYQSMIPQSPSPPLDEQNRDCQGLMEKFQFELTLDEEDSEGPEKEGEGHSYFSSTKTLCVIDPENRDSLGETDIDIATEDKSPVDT
T2 sequence (Q08499 whole entry): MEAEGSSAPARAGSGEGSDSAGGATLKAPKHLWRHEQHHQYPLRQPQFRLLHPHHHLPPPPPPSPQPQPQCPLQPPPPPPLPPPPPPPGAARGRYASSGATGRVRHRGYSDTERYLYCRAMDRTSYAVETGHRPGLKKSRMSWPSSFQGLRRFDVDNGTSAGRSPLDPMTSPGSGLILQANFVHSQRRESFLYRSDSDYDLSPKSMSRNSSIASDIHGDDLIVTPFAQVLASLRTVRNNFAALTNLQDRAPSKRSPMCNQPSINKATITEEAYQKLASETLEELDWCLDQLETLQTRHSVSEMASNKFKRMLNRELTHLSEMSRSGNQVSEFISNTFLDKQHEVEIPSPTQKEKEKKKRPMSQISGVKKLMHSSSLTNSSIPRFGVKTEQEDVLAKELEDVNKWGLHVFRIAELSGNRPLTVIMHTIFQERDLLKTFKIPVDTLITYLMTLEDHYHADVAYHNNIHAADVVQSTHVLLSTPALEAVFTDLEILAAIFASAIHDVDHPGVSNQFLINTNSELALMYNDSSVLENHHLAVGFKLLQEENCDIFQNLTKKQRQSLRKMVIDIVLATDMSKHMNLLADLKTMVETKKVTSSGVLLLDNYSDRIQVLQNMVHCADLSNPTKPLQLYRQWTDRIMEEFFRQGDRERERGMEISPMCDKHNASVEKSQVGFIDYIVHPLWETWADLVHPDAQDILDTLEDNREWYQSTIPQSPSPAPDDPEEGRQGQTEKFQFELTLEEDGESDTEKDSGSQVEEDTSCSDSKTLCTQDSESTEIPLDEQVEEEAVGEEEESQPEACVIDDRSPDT

| SMILES | AUC(0-t) [1] | Cmax [1] | Tmax [1] | IC50 (PDE4B) | IC50 (PDE4D)/IC50 (PDE4B) (PDE4B) | AUC(0-t) [2] | Cmax [2] | Tmax [2] | IC50 (PDE4D) | AUC(0-t) [3] | Cmax [3] | Tmax [3] |
| --- | --- | --- | --- | --- | --- | --- | --- | --- | --- | --- | --- | --- |
| COc1ccc([C@@H]2CN(C(=O)[C@@H](O)CO)C[C@@]2(C)[C@@H](C)O)cc1OC1CN(c2ncc(C)cc2F)C1 [Compound 004, (S)-1-((3S,4S)-4-(3-((1-(3-fluoro-5-methylpyridin-2-yl)azetidin-3-yl)oxy)-4-methoxyphenyl)-3-((R)-1-hydroxyethyl)-3-methylpyrrolidin-1-yl)-2,3-dihydroxypropan-1-one] | 1740 ng·h/mL | 484 ng/mL | 49.8 min | 0.93 nM | 1.20 | 896 ng·h/mL | 378 ng/mL | 30 min | 1.12 nM |  |  |  |
| COc1ccc([C@@H]2CN(C(=O)[C@@H](O)CO)C[C@@]2(C)[C@@H](C)O)cc1OC1CN(c2ccc(Cl)c(C)n2)C1 [Compound 011, (S)-1-((3S,4S)-4-(3-((1-(5-chloro-6-methylpyridin-2-yl)azetidin-3-yl)oxy)-4-methoxyphenyl)-3-((R)-1-hydroxyethyl)-3-methylpyrrolidin-1-yl)-2,3-dihydroxypropan-1-one] | 1420 ng·h/mL | 356 ng/mL | 49.8 min | 2.31 nM | 0.46 | 1050 ng·h/mL | 316 ng/mL | 30 min | 1.07 nM |  |  |  |
| COc1ccc([C@@H]2CN(C(=O)[C@@H](O)CO)C[C@@]2(C)[C@@H](C)O)cc1OC1CN(c2ccc(C)cn2)C1 [Positive control compound, reference compound] | 423 ng·h/mL | 159 ng/mL | 55.2 min | 2.1 nM | 0.20 | 237 ng·h/mL | 142 ng/mL | 15 min | 0.41 nM | 3640 ng·h/mL | 565 ng/mL | 90 min |
| COc1ccc([C@@H]2CN(C(=O)[C@@H](O)CO)C[C@@]2(C)[C@@H](C)O)cc1OC1CN(c2ccc(C)c(C)n2)C1 [Compound 007, (S)-1-((3S,4S)-4-(3-((1-(5,6-dimethylpyridin-2-yl)azetidin-3-yl)oxy)-4-methoxyphenyl)-3-((R)-1-hydroxyethyl)-3-methylpyrrolidin-1-yl)-2,3-dihydroxypropan-1-one] | 1690 ng·h/mL | 689 ng/mL | 15 min | 1.17 nM | 3.37 | 332 ng·h/mL | 125 ng/mL | 30 min | 3.94 nM | 44400 ng·h/mL | 13800 ng/mL | 105 min |

Reference: patent US20220056014A1, “PHENYLPYRROLIDINE COMPOUND AND USE THEREOF” (WUHAN HUMANWELL INNOVATIVE DRUG RESEARCH AND DEVELOPMENT …, priority 2018, published 2022)
